In patent publication US9175031B2, “Ketolide compounds” (WOCKHARDT LIMITED, priority 2010, dated 2015) one finds melting point, MIC and ED50 data, which are given here for 4 compounds.

≈ marks a conversion by molar mass, not a printed value.

The term melting point denotes the temperature of the solid-liquid transition. Broadly, the ED50 is the dose that gives a 50% effect, or the effect in half of the subjects.

Data set [1] has as its system S pneumoniae sensitive strains. The data set is described as follows: MIC, CLSI agar dilution method. The format is cell-based. To be noted: 18 hrs at 37° C. As to the method: (§1) The antibacterial activity of compounds of the invention was evaluated by determining the minimal inhibitory concentration (MIC) according to standard CLSI agar dilution method. The media used for preculture and main culture were Tryptic Soya broth (Difco) and Mueller Hinton medium (Difco), respectively. The Mueller Hinton agar was supplemented with 5% sheep blood for streptococci and pneumococci, and with haemoglobin as well as NAD (nicotinamide adenine dinucleotide) for Haemophilus influenzae, respectively. Overnight cultures were diluted with buffered saline (pH 7.2) to the final cell density of 5×10^6-10^7 CFU/ml, and each bacterial suspension was applied with a replicator (Denley's multipoint inoculator, UK) onto a series of Mueller-Hinton agar plates containing antibacterial agents at various concentrations. Final inoculum was approximately 10^4 CFU/spot. The plates were incubated for 18 hrs at 37° C. The MIC was defined as the lowest concentration of an antibacterial agent that inhibits the development of visible microbial growth on agar.
In general terms: In agar dilution the substance is mixed into plates at graded concentrations.

Data set [2] deals with S pneumoniae mef strains. The data set can be described thus: MIC, CLSI agar dilution method. The format is cell-based. To be noted: 18 hrs at 37° C. As to the method:
as §1

Data set [3] deals with H influenzae. The data set is described as follows: MIC, CLSI agar dilution method. Format: cell-based. The note with it: 18 hrs at 37° C. As to the method: as §1
Data set [4] has as its system S pneumoniae 3773, a high level ermb strain. The data set can be described thus: MIC, CLSI agar dilution method. Format: cell-based. The note with it: S pneumoniae 3773, high level ermb strain, 18 hrs at 37° C. As for the experimental part:
as §1

Data set [5] has as its system S pneumoniae ermb strains. The data set is described as follows: MIC, CLSI agar dilution method. Format: cell-based. To be noted: 18 hrs at 37° C. As for the experimental part:
as §1

In data set [6] the test system is S pyogene 3530, a high level ermb strain. The data set is described as follows: MIC, CLSI agar dilution method. The format is cell-based. The note with it: S pyogene 3530, high level ermb strain, 18 hrs at 37° C. As to the method:
as §1

Data set [7] concerns S pneumoniae 3773. The data set is described as follows: In vivo oral efficacy (ED50) in mice intraperitoneally infected with S pneumoniae 3773. To be noted: Mus musculus, two doses at 1 hour and 4 hour after intraperitoneal infection with S pneumoniae 3773, survival on day seven, read-out: ED50 (Dose protecting 50% of infected mice). As for the experimental part: The in vivo efficacy of compounds of the invention was evaluated by determining ED50 by oral administration of compounds to group of mice (6 mice/dose group) intraperitoneally infected with (5×10^7-1×10^8 CFU/mouse) S pneumoniae 3773. Two doses of compounds of the invention and Telithromycin were administered at 1 hour and 4 hour after infection. On day seven, percentage of animals surviving in various dose groups were employed to determine ED50 (Dose protecting 50% of infected mice)

`CC[C@@H]1OC(=O)[C@@](C)(F)C(=O)[C@H](C)[C@@H](OC2O[C@H](C)C[C@H](N(C)C)[C@H]2O)[C@](C)(OC)C[C@@H](C)C(=O)[C@H](C)[C@H]2[C@H](/C(N)=N/OCc3nnc(-c4ncccn4)s3)C(=O)O[C@@]21C` (stereo partly drawn) [Example 7, (11S,21R)-3-decladinosyl-11,12-dideoxy-2-fluoro-6-O-methyl-3-oxo-12,11-{oxycarbonyl-[E-N-[(5-pyrimidin-2-yl-1,3,4-thiadiazol-2-yl)-methoxy]-carboxamidino]methylene}-erythromycin A] gave a melting point of 192 to 194 °C.

Regarding `CC[C@H]1OC(=O)[C@H](C)C(=O)[C@H](C)[C@@H](O[C@@H]2O[C@H](C)C[C@H](N(C)C)[C@H]2O)[C@](C)(OC)C[C@@H](C)C(=O)[C@H](C)[C@H]2N(CCCCn3cnc(-c4cccnc4)c3)C(=O)O[C@]12C` [Telithromycin], the MIC in data set [1] is 0.007 to 0.015 µg/mL (≈ 0.00862 to 0.0185 µM); in data set [2], 0.015 to 1 µg/mL (≈ 0.0185 to 1.23 µM); in data set [3] it was 4 to 8 µg/mL (≈ 4.93 to 9.85 µM); in data set [4], 4 µg/mL (≈ 4.93 µM); in data set [5], 0.007 to 0.5 µg/mL (≈ 0.00862 to 0.616 µM); in data set [6] it was 16 µg/mL (≈ 19.7 µM). In data set [7], the ED50 was 75 to 100 mg/kg.

`CC[C@@H]1OC(=O)[C@@](C)(F)C(=O)[C@H](C)[C@@H](OC2O[C@H](C)C[C@H](N(C)C)[C@H]2O)[C@](C)(OC)C[C@@H](C)C(=O)[C@H](C)[C@H]2[C@H](/C(N)=N/OCc3ncc(-c4ccon4)cn3)C(=O)O[C@@]21C` (stereo partly drawn) [Example 3, (11S,21R)-3-decladinosyl-11,12-dideoxy-2-fluoro-6-O-methyl-3-oxo-12,11-{oxycarbonyl-[E-N-[(5-isoxazol-3-yl-pyrimidin-2-yl)-methoxy]-carboxamidino]methylene}-erythromycin A] displayed a melting point of 196 to 197 °C.

Regarding `CC[C@@H]1OC(=O)[C@H](C)C(=O)[C@H](C)[C@@H](OC2O[C@H](C)C[C@H](N(C)C)[C@H]2O)[C@](C)(OC)C[C@@H](C)C(=O)[C@H](C)[C@H]2[C@H](/C(N)=N/O[C@@H](C)c3nnc(-c4ccccn4)s3)C(=O)O[C@@]21C` (stereo partly drawn) [Example 33, (11S,21R)-3-decladinosyl-11,12-dideoxy-6-O-methyl-3-oxo-12,11-{oxycarbonyl-[E-N-[1-(5-pyridin-2-yl-1,3,4-thiadiazol-2-yl)-(S)-ethoxy]-carboxamidino]methylene}-erythromycin A], the melting point lay within 135 to 137 °C.
